# Patent US20170029355A1, “LABILE ESTERS OF AGROCHEMICALS FOR CONTROLLED RELEASE AND REDUCTION OF OFF-SITE MOVEMENT” (Monsanto Technology LLC, priority 2011, published 2017)
# What was measured:
# [1] = Photolysis / cleavage of the esters to dicamba (statements of the description); assay type: physicochemical; conditions: qualitative
# Description: The efficacy of the photolabile esters can be assayed in vitro, or in greenhouse or field experiments. A useful in vitro assay for post-emergent activity involves photolysis of a dilute solution of the esters using simulated sunlight. This is conveniently achieved by photolysis of a solution of the ester in an organic solvent which is miscible with water and to which some water has been added. As described in the Examples, photolysis in acetonitrile or tetrahydrofuran containing 10% water by weight is effective. Low concentrations of the ester should be used so that the entire volume is exposed to sunlight. Since the maximum extinction coefficient of the typical esters above 220 nm is in the range of 1000-10,000 M^−1 cm^−1, a concentration of 0.1 mM is effective. Photolysis in a quartz tube exposed to simulated or actual sunlight is a typical protocol.
# velvetleaf [2] = assay: Greenhouse post-emergent control of velvetleaf by emulsifiable concentrates (Example 30); assay type: in vivo
# Procedure: (§1) The efficacy of some photo-labile ester formulations from Example 28 for post-emergent control of velvetleaf was tested in the greenhouse. All formulations were tested at rates of 140, 280, 420, and 560 g dicamba equivalent per hectare rates and compared to the diglycolamine salt of dicamba (CLARITY®) at the same rates and untreated control plants. The velvetleaf plants were 10-15 cm in height at the time of spraying. Percent control was evaluated three weeks after treatment.
# The methodology of Example 29 was used to evaluate the efficacy of several photo-labile esters of dicamba for post-emergent control of velvetleaf as emulsifiable concentrate formulations described in Example 28.
# [3] = In vitro photo-release and hydrolytic release of dicamba in an aqueous medium (Example 36); assay type: physicochemical; conditions: 0.01 mM (0.005 mM for diesters)
# Procedure: This Example describes the determination of photo-lability and hydrolytic lability of dicamba esters in an aqueous medium. 1 mM solutions of the esters were prepared in acetonitrile (or […] solutions of dicamba diesters). The solutions were then diluted with deionized water to a concentration of 0.01 mM (or 0.005 mM for diesters). The solutions were then transferred to quartz tubes and amber bottles and held in a growth chamber by the procedure of Example 26. A 14-hour day was generally used at a constant temperature of 35° C. Hydrolytic activity was assessed by measuring the increase in dicamba concentration after day zero in the amber (dark) bottles. […] Photolysis manifested itself as increased conversion in the quartz tubes compared to the dark control.
# This Example provides the results of an aqueous lability test following the protocol of Example 35 for several dicamba esters which convert to dicamba primarily by hydrolysis. As shown by the results in the table below, conversion of the dark controls generally equaled or exceeded conversion in the photolysis solutions.
# morning glory = assay: Field testing of emulsifiable concentrates, post-emergent control (Example 40); assay type: in vivo
# Procedure: (§2) Three dicamba esters, 30a, 32a, and 36a, were formulated as emulsifiable concentrates for field testing. All surfactants are commercial materials from Stepan.
# (§3) The formulations were tested in the field. Locations and timing were identical for the three esters, but differed slightly for the diglycolamine control. The esters were compared to the diglycolamine salt of dicamba (CLARITY™) for post-emergent control of three broadleaf weeds: velvetleaf, morning glory, and hemp sesbania. Rates of 280 and 560 g dicamba acid equivalent per hectare were used.
# velvetleaf [4] = assay: as above; assay type: in vivo
# Procedure: as §2, §3
# hemp sesbania = assay: as above; assay type: in vivo
# Procedure: as §2, §3
# broadleaf weeds = assay: Control of broadleaf weeds by ester concentrates (statements of the description); assay type: in vivo; conditions: emulsifiable and suspension concentrates; Sesbania macrocarpa, morning glory, velvetleaf, Palmer amaranth, fat hen, sicklepod
# velvetleaf [5] = assay: Greenhouse post-emergent control of velvetleaf by emulsifiable concentrates (Example 37); assay type: in vivo; conditions: Abutilon theophrasti, post-emergence, 504 h, greenhouse, Example 37
# Procedure: as §1
# The methodology of Example 29 was used to evaluate the efficacy of several esters of dicamba which convert to dicamba by hydrolysis for post-emergent control of velvetleaf as emulsifiable concentrate formulations.
# [6] = In vitro dicamba photo-release from photo-labile dicamba esters, tetrahydrofuran solvent (Example 26); assay type: physicochemical; conditions: THF, 0.1 mM ester
# Procedure: (§4) This Example describes in vitro testing of dicamba photo-release by homogeneous solutions of photo-labile dicamba esters. The esters were dissolved in tetrahydrofuran (THF). Ester concentration was 0.1 mM. 25 ml of the solution was transferred to 22 mm tubes fabricated from graded seal quartz tubing with a 19/22 tapered seal at the top, which was closed with a tapered glass plug and secured with a plastic ring clamp. The solution was entirely below the quartz-to-glass transition, ensuring that the entire volume was exposed to the full spectrum.
# (§5) The sealed tubes were placed in a Growth Chamber where they were exposed to simulated sunlight for 14 hours per day at 35° C. Dicamba concentrations in the solution were measured during the course of the photolysis.
# (§6) A sample of the initial solution was reserved in a glass vial away from the light source and analyzed at the conclusion of the study, providing a measurement of the amount of dicamba present without illumination of the photolysis solution (the “dark control”).
# [7] = In vitro dicamba photo-release from photo-labile dicamba esters, acetonitrile/10% water solvent (Example 27); assay type: physicochemical; conditions: acetonitrile containing 10% water
# Procedure: as §4, §5, §6
# This Example is another photolysis of photo-labile dicamba esters, but using acetonitrile containing 10% water by weight as the solvent. The experimental protocol is otherwise the same as in Example 18.
# velvetleaf [8] = assay: Greenhouse post-emergent control of velvetleaf by emulsifiable concentrates (Example 29); assay type: in vivo; conditions: three weeks after treatment
# Procedure: as §1
# [9] = Solubility of the esters (statements of the description); assay type: physicochemical; conditions: qualitative
# [10] = 280 g dicamba acid equivalent per hectare
# [11] = 560 g dicamba acid equivalent per hectare
compound,measurement,setting,value
"COc1c(Cl)ccc(Cl)c1C(=O)OCc1cccc([N+](=O)[O-])c1 [Ester 1c, 3-nitrobenzyl ester of dicamba]","photolysis / photo-release of dicamba, in words",[1],slower and less efficient photolysis than the 2-nitrobenzyl ester
COc1c(Cl)ccc(Cl)c1C(=O)OCCOc1ccccc1[N+](=O)[O-] [Ester 3],"photolysis / photo-release of dicamba, in words",[1],the rate of photolysis decreases
same,"% Control of velvetleaf, 140 g/ha",velvetleaf [2],36%
same,"% Control of velvetleaf, 280 g/ha",velvetleaf [2],57%
same,"% Control of velvetleaf, 420 g/ha",velvetleaf [2],40%
same,"% Control of velvetleaf, 560 g/ha",velvetleaf [2],43%
COc1c(Cl)ccc(Cl)c1C(=O)Oc1nc(C(C)(C)C)cc(C(C)(C)C)c1C#N [Ester 36a],"Conversion to Dicamba, Dark, Day 0","[3]; amber (dark) bottle, Day 0",20%
same,"Conversion to Dicamba, Dark, Day 1","[3]; amber (dark) bottle, Day 1",59%
same,"Conversion to Dicamba, Dark, Day 2","[3]; amber (dark) bottle, Day 2",61%
same,"Conversion to Dicamba, Dark, Day 3","[3]; amber (dark) bottle, Day 3",60%
same,"Conversion to Dicamba, Dark, Day 4","[3]; amber (dark) bottle, Day 4",60%
same,"Conversion to Dicamba, Dark, Day 7","[3]; amber (dark) bottle, Day 7",65%
same,"Conversion to Dicamba, Dark, Day 21","[3]; amber (dark) bottle, Day 21",66%
same,"Conversion to Dicamba, Light, Day 0","[3]; quartz tube, Day 0",20%
same,"Conversion to Dicamba, Light, Day 1","[3]; quartz tube, Day 1",57%
same,"Conversion to Dicamba, Light, Day 2","[3]; quartz tube, Day 2",60%
same,"Conversion to Dicamba, Light, Day 3","[3]; quartz tube, Day 3",58%
same,"Conversion to Dicamba, Light, Day 4","[3]; quartz tube, Day 4",59%
same,"Conversion to Dicamba, Light, Day 7","[3]; quartz tube, Day 7",63%
same,"Conversion to Dicamba, Light, Day 21","[3]; quartz tube, Day 21",65%
same,"% control 19 days after treatment, 280 g/ha, Morning glory",morning glory; [10],83 ± 4%
same,"% control 19 days after treatment, 560 g/ha, Morning glory",morning glory; [11],93 ± 5%
same,"% control 19 days after treatment, 280 g/ha, Velvetleaf",velvetleaf [4]; [10],72 ± 25%
same,"% control 19 days after treatment, 560 g/ha, Velvetleaf",velvetleaf [4]; [11],84 ± 26%
same,"% control 19 days after treatment, 280 g/ha, Hemp sesbania",hemp sesbania; [10],82 ± 10%
same,"% control 19 days after treatment, 560 g/ha, Hemp sesbania",hemp sesbania; [11],98 ± 2%
same,"control of a number of broadleaf weeds in field testing, in words",broadleaf weeds,proven effective
same,pest or weed control at 140 g/ha,"velvetleaf [5]; 140 g/ha, read-out: % Control of velvetleaf, 140 g/ha",15.8%
same,pest or weed control at 280 g/ha,"velvetleaf [5]; 280 g/ha, read-out: % Control of velvetleaf, 280 g/ha",26.7%
same,pest or weed control at 420 g/ha,"velvetleaf [5]; 420 g/ha, read-out: % Control of velvetleaf, 420 g/ha",32.5%
same,pest or weed control at 560 g/ha,"velvetleaf [5]; 560 g/ha, read-out: % Control of velvetleaf, 560 g/ha",66.7%
COc1c(Cl)ccc(Cl)c1C(=O)Oc1c(C)cc(C)cc1C(C)(C)C [Ester 21],"photolysis / photo-release of dicamba, in words",[1],undergo photo-release of dicamba in vitro
"COc1c(Cl)ccc(Cl)c1C(=O)OCCOCc1ccccc1[N+](=O)[O-] [Ester 4, 2-(2-Nitrobenzoxy)Ethanol Ester of Dicamba]","photolysis / photo-release of dicamba, in words",[1],the rate of photolysis decreases
same,"% Control of velvetleaf, 140 g/ha",velvetleaf [2],32%
same,"% Control of velvetleaf, 280 g/ha",velvetleaf [2],52%
same,"% Control of velvetleaf, 420 g/ha",velvetleaf [2],50%
same,"% Control of velvetleaf, 560 g/ha",velvetleaf [2],51%
"CCCCOc1ccc(C(=O)COC(=O)c2c(Cl)ccc(Cl)c2OC)cc1 [Ester 10, p-n-Butoxyphenacylmethyl Ester of Dicamba]",Dark Control % dicamba,"[6]; initial solution kept away from the light source, analyzed at conclusion of study",8%
same,"Conversion to dicamba, 1 day","[6]; simulated sunlight 14 hours per day, 35° C., 1 day",16%
same,"Conversion to dicamba, 2 days","[6]; simulated sunlight 14 hours per day, 35° C., 2 days",15%
same,"Conversion to dicamba, 3 days","[6]; simulated sunlight 14 hours per day, 35° C., 3 days",16%
same,"Conversion to dicamba, 5 days","[6]; simulated sunlight 14 hours per day, 35° C., 5 days",19%
same,"Conversion to dicamba, 7 days","[6]; simulated sunlight 14 hours per day, 35° C., 7 days",20%
same,"Conversion to dicamba, 9 days","[6]; simulated sunlight 14 hours per day, 35° C., 9 days",29%
same,"Conversion to dicamba, 12 days","[6]; simulated sunlight 14 hours per day, 35° C., 12 days",35%
same,"Conversion to dicamba, 15 days","[6]; simulated sunlight 14 hours per day, 35° C., 15 days",35%
same,Dark Control % dicamba,[7]; no illumination,8%
same,"Conversion to dicamba, 1 day","[7]; simulated sunlight, 1 day",17%
same,"Conversion to dicamba, 2 days","[7]; simulated sunlight, 2 days",19%
same,"Conversion to dicamba, 3 days","[7]; simulated sunlight, 3 days",20%
same,"Conversion to dicamba, 5 days","[7]; simulated sunlight, 5 days",24%
same,"Conversion to dicamba, 7 days","[7]; simulated sunlight, 7 days",28%
same,"Conversion to dicamba, 11 days","[7]; simulated sunlight, 11 days",32%
same,"Conversion to dicamba, 13 days","[7]; simulated sunlight, 13 days",31%
same,"Conversion to dicamba, 15 days","[7]; simulated sunlight, 15 days",32%
same,"Conversion to dicamba, 19 days","[7]; simulated sunlight, 19 days",33%
same,"% Control of velvetleaf, 140 g/ha",velvetleaf [8]; 140 g dicamba equivalent per hectare,23%
same,"% Control of velvetleaf, 280 g/ha",velvetleaf [8]; 280 g dicamba equivalent per hectare,33%
same,"% Control of velvetleaf, 420 g/ha",velvetleaf [8]; 420 g dicamba equivalent per hectare,28%
same,"% Control of velvetleaf, 560 g/ha",velvetleaf [8]; 560 g dicamba equivalent per hectare,33%
same,"control of a number of broadleaf weeds in field testing, in words",broadleaf weeds,proven effective
"COc1cc(COC(=O)c2c(Cl)ccc(Cl)c2OC)c([N+](=O)[O-])cc1OC [Ester 1b, 6-nitroveratryl ester of dicamba]","solubility, in words",[9],significantly less soluble than 1a
